Laboratory results from patent publication US7332476B2, “Pyridyl substituted ketolide antibiotics” (Novartis AG, priority 2003, dated 2008).
In brackets after ≈: the same amount, converted by molar mass.

Experiments:
Assay in all cases: MIC, broth microdilution (NCCLS)
[1] = test system: Streptococcus pneumoniae Stpn_297-749; assay type: cell-based; design: MIC, strain ID N: unit not given here; conditions: strain ID N; broth microdilution
Procedure, shortened: (§1)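 NCCLS broth microdilution with 2-fold serial drug dilutions (methanol stocks diluted in water); inoculum 3×10^5–7×10^5 CFU/ml in CAMHB, with 2-5% lysed horse blood for S. pneumoniae. Incubation 18-24 h at 35° C., ambient air, except S. pneumoniae (5-10% CO2). MIC is lowest concentration preventing visible growth.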

[2] = test system: Streptococcus pyogenes Stpy_8668; assay type: cell-based; design: MIC, strain ID G: unit not given beside the values; conditions: strain ID G; broth microdilution
Procedure, shortened: as §1

[3] = test system: Haemophilus influenzae Hain_2762; assay type: cell-based; conditions: strain ID L; broth microdilution; in µg/mL (unit assumed)
Procedure, shortened: (§2)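 MIC read visually as lowest drug concentration with no growth after 18-24 h at 35° C; ambient air for staphylococci and enterococci, 5-10% CO2 for H. influenzae. Inoculum 3×10^5–7×10^5 CFU/ml; CAMHB or Haemophilus Test Medium.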

[4] = test system: Enterococcus faecalis Enfa_bc 11148-2; assay type: cell-based; conditions: strain ID F; broth microdilution; in µg/mL (unit assumed)
Procedure, shortened: as §2

[5] = test system: Staphylococcus aureus Stau_33591; assay type: cell-based; conditions: strain ID B; broth microdilution; unit assumed
Procedure, shortened: as §2

[6] = test system: Haemophilus influenzae Hain_953460299-3; assay type: cell-based; conditions: strain ID K; broth microdilution; in µg/mL (unit assumed)
Procedure, shortened: as §2

[7] = test system: Haemophilus influenzae Hain_960820544-3; assay type: cell-based; conditions: strain ID J; broth microdilution; in µg/mL (unit assumed)
Procedure, shortened: as §2

[8] = test system: Haemophilus influenzae Hain_960730503-3; assay type: cell-based; conditions: strain ID I; broth microdilution; in µg/mL (unit assumed)
Procedure, shortened: as §2

[9] = test system: S. pneumoniae Stpn_Erm 6849; assay type: cell-based, Streptococcus pneumoniae; conditions: strain ID P; broth microdilution; in µg/mL (unit assumed)
Procedure, shortened: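 S. pneumoniae MIC by NCCLS broth microdilution in cation-adjusted Mueller-Hinton broth with 2-5% lysed horse blood, inoculum 3×10^5–7×10^5 CFU/ml, 2-fold drug dilutions. Incubated 18-24 hours at 35° C. in 5-10% CO2; MIC is lowest concentration preventing visible growth.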

[10] = test system: Enterococcus faecalis Enfa_29212; assay type: cell-based; conditions: strain ID E, broth microdilution
Procedure, shortened: as §1

[11] = test system: Streptococcus pneumoniae Stpn_Erm S 4297; assay type: cell-based; conditions: strain ID Q; broth microdilution; in µg/mL (unit assumed)
Procedure, shortened: as §1

[12] = test system: Staphylococcus epidermidis Step_14990; assay type: cell-based; conditions: strain ID C; broth microdilution; in µg/mL (unit assumed)
Procedure, shortened: as §1

[13] = test system: Haemophilus influenzae Hain_49247; assay type: cell-based; conditions: strain ID H; broth microdilution; unit assumed
[14] = test system: Staphylococcus aureus Stau_29213; assay type: cell-based; conditions: strain ID A; broth microdilution; in µg/mL (unit assumed)
Procedure, shortened: as §1

[15] = test system: Staphylococcus epidermidis Step_f50654; assay type: cell-based; conditions: strain ID D; broth microdilution; in µg/mL (unit assumed)
Procedure, shortened: as §1

[16] = test system: Streptococcus pneumoniae Stpn_49619; assay type: cell-based; design: MIC, strain ID M: unit not given beside the values; conditions: strain ID M; broth microdilution
Procedure, shortened: as §1

[17] = test system: Streptococcus pneumoniae Stpn_280-962; assay type: cell-based; design: MIC, strain ID O: unit not given beside the values; conditions: strain ID O; broth microdilution
Procedure, shortened: as §1

Row | Structure (SMILES) | MIC, strain ID N [1] | MIC, strain ID G [2] | MIC, strain ID L [3] | MIC, strain ID F [4] | MIC, strain ID B [5] [µg/mL] | MIC, strain ID K [6] | MIC, strain ID J [7] | MIC, strain ID I [8] | MIC, strain ID P [9] | MIC, strain ID E ([10]; in µg/mL (unit assumed)) | MIC, strain ID Q [11] | MIC, strain ID C [12] | MIC, strain ID H [13] [µg/mL] | MIC, strain ID A [14] | MIC, strain ID D [15] | MIC, strain ID M [16] | MIC, strain ID O [17] | MIC, strain ID E [10]
1 | C#C[C@]12OC(=O)N(CCCCn3cnc(-c4ccc(OC)nc4)c3)[C@@H]1[C@@H](C)C(=O)[C@H](C)C[C@](C)(OC)[C@H](OC1O[C@H](C)C[C@H](N(C)C)[C@H]1O)[C@@H](C)C(=O)[C@@H](C)C(=O)O[C@@H]2CC (stereo partly drawn) [XXXII] | =0.05 | =0.05 | 1.56 | 1.56 | > 50 | 12.5 | 12.5 | 12.5 | 0.78 | 0.1 | 0.2 | 0.1 | 6.25 (≈ 7.34 µM) | 0.2 | 0.2 | =0.05 | =0.05 | 
2 | C#C[C@]12OC(=O)N(CCCCn3cnc(-c4ccc(Cl)nc4)c3)[C@@H]1[C@@H](C)C(=O)[C@H](C)C[C@](C)(OC)[C@H](OC1O[C@H](C)C[C@H](N(C)C)[C@H]1O)[C@@H](C)C(=O)[C@@H](C)C(=O)O[C@@H]2CC (stereo partly drawn) [XXXIV] | =0.05 | =0.05 | 0.78 | 0.4 | > 50 | 6.25 | 6.25 | 6.25 | 0.4 |  | 0.1 | 0.1 | 3.13 (≈ 3.65 µM) | 0.1 | 0.1 | =0.05 | =0.05 | =0.05
3 | C=C[C@]12OC(=O)N(CCCCn3cnc(-c4cnc(Cl)c(C)c4)c3)[C@@H]1[C@@H](C)C(=O)[C@H](C)C[C@](C)(OC)[C@H](OC1O[C@H](C)C[C@H](N(C)C)[C@H]1O)[C@@H](C)C(=O)[C@@H](C)C(=O)O[C@@H]2CC (stereo partly drawn) [XXXVIII] | =0.05 | =0.05 | 1.56 | 3.13 | > 50 | 12.5 | 12.5 | 6.25 | 0.2 | 0.1 | 0.2 | 0.1 | 3.13 (≈ 3.59 µM) | 0.1 | 0.4 | =0.05 | =0.05 | 
4 | C=C[C@]12OC(=O)N(CCCCn3cnc(-c4ccc(Cl)nc4)c3C)[C@@H]1[C@@H](C)C(=O)[C@H](C)C[C@](C)(OC)[C@H](OC1O[C@H](C)C[C@H](N(C)C)[C@H]1O)[C@@H](C)C(=O)[C@@H](C)C(=O)O[C@@H]2CC (stereo partly drawn) [XXXVII] | =0.05 | =0.05 | 1.56 | 0.78 | > 50 | 6.25 | 6.25 | 12.5 | 0.78 | 0.1 | 0.2 | 0.2 | 6.25 (≈ 7.16 µM) | 0.2 | 0.2 | =0.05 | =0.05 | 
5 | C=C[C@]12OC(=O)N(CCCCn3cnc(-c4cccnc4Cl)c3)[C@@H]1[C@@H](C)C(=O)[C@H](C)C[C@](C)(OC)[C@H](OC1O[C@H](C)C[C@H](N(C)C)[C@H]1O)[C@@H](C)C(=O)[C@@H](C)C(=O)O[C@@H]2CC (stereo partly drawn) [XXXVI] | =0.05 | =0.05 | 1.56 | 1.56 | > 50 | 6.25 | 6.25 | 6.25 | 0.78 | 0.1 | 0.1 | 0.1 | 3.13 (≈ 3.65 µM) | 0.2 | 0.2 | =0.05 | =0.05 | 
6 | C=C[C@]12OC(=O)N(CCCCn3cnc(-c4cnccc4OC)c3)[C@@H]1[C@@H](C)C(=O)[C@H](C)C[C@](C)(OC)[C@H](OC1O[C@H](C)C[C@H](N(C)C)[C@H]1O)[C@@H](C)C(=O)[C@@H](C)C(=O)O[C@@H]2CC (stereo partly drawn) [XXXV] | =0.05 | =0.05 | 1.56 | 0.78 | > 50 | 6.25 | 6.25 | 6.25 | 0.78 | 0.1 | 0.2 | 0.1 | 6.25 (≈ 7.32 µM) | 0.2 | 0.1 | =0.05 | =0.05 | 
